The text below walks through data of patent US11220674B2, “Stabilization of dehydrogenases with stable coenzymes” (ROCHE DIABETES CARE, INC., priority 2009, dated 2022).

A short description of data set [1]: Residual content of coenzyme in glucose detection reagent after dry storage on film (cNAD/NAD analysis). Format: physicochemical. The note with it: storage at 32° C. and 85% relative humidity for 24 weeks. On the procedure:
(§1) Carba-NAD (FIG. 1A) or NAD were added to the glucose-specific GlucDH. These formulations were in each case applied to Pokalon film (Lonza) and, after drying, stored under warm and moist conditions (32° C., 85% relative humidity). The reaction kinetics and the function plot were subsequently determined at regular intervals. In parallel, at each of the times of measurement a cNAD/NAD analysis and a determination of the residual activity of the enzyme were carried out.
The relation between structure of the coenzyme and its stability over a predetermined period is evident from FIG. 6. According to this, the residual content of cNAD in a glucose detection reagent after storage (at 32° C. and 85% relative humidity) for 24 weeks is still about 80% of the initial level, whereas the content of NAD in a glucose detection reagent stabilized with NAD declines after only 5 weeks to about 35% of the initial level and, by extrapolation, is reduced to zero after about 17 weeks.

The target of data set [2] is glucose dehydrogenase (GlucDH), wild-type (Bacillus subtilis, UniProt P12310). The data set can be described thus: Residual activity of GlucDH after dry storage on film with coenzyme. The class given is biochemical. As for the experimental part:
as §1
The result of the determination of residual activity of the active GlucDH enzyme after 5 weeks at 32° C. and 85% relative humidity (FIG. 7A) is completely surprising. […] After 24 weeks at 32° C. and 85% relative humidity (FIG. 7B), the residual activity of the enzyme on stabilization with cNAD is still about 25%.

Data set [3] concerns the target GlucDH_E170K_K252L (GlucDH-Mut2) (Bacillus subtilis, UniProt P12310, A229V/A236S/E170K/Q252L). The data set can be described thus: Residual activity of GlucDH mutant after dry storage with coenzyme. The class given is biochemical. The note with it: storage at 32° C. and 85% relative humidity for 24 weeks. As for the experimental part:
(§2) FIG. 8 is a depiction of the GlucDH activity after storage of glucose dehydrogenase (GlucDH wt), the double mutant GlucDH_E96G_EI70K (GlucDH Mut1) and the double mutant GlucDH_E170K_K252L (GlucDH Mut2) in the presence of NAD and cNAD, respectively, at 32° C. and 83% relative humidity over a period of 25 weeks.
as §1
(§3) If a mutant is used instead of the wild-type enzyme (from Bacillus subtilis), it is possible to increase the residual GlucDH activity even further. […]

Data set [4] has as its target GlucDH_E96G_E170K (GlucDH-Mut1) (Bacillus subtilis, UniProt P12310, A229V/A236S/E170K/E96G/Q252K). The description is as above. The class given is biochemical. The note with it: storage at 32° C. and 85% relative humidity for 24 weeks. As for the experimental part:
as §2, §1, §3

Data set [5] has as its target T1, glucose dehydrogenase (GlucDH) (Bacillus subtilis, UniProt P12310). The data set can be described thus: Stability of GlucDH in liquid phase at 50° C. with coenzyme (residual activity). The class given is biochemical. On the procedure:
FIG. 11A is a depiction of the stability of glucose dehydrogenase in the presence of NAD and cNAD, respectively, in liquid phase at 50° C. over a period of 4 days Test conditions: GlucDH 10 mg/ml; NAD and cNAD, respectively, 12 mg/ml; buffer: 0.1 M Tris, 1.2 M NaCl, pH 8.5; temperature 50° C.
FIG. 11B is a depiction of the stability of glucose dehydrogenase in the presence of NAD and cNAD, respectively, in liquid phase at 50° C. over a period of 14 days at the same test conditions as FIG. 11A.
After 95 hours at 50° C., the residual activity of glucose dehydrogenase in the presence of the native coenzyme NAD is ≈5%, whereas the residual activity of GlucDH in the presence of the artificial coenzyme cNAD is 75% (FIG. 11A). After storage at 50° C. for 336 hours, the residual activity of the enzyme stabilized with NAD is now only about 1%; the residual activity of the enzyme stored in the presence of cNAD is observed to be still about 70%.

In data set [6] the target is T1, glucose dehydrogenase (GlucDH). The data set can be described thus: Reaction kinetics, function plot and dry blank value of GlucDH test film after storage. Format: biochemical. On the procedure:
as §1
However, a distinct difference in the kinetics plots is evident after 5 weeks.
There is also a distinct difference in the blank values (dry blank value before application of a blood sample), as is evident from FIG. 3.
The differing stability of glucose dehydrogenase in the presence of NAD and cNAD, respectively, is also evident from comparison of FIGS. 4 and 5.

Data set [7] has as its target T2, alcohol dehydrogenase from yeast (Saccharomyces cerevisiae, UniProt P00330).
T2 sequence (P00330 1-348): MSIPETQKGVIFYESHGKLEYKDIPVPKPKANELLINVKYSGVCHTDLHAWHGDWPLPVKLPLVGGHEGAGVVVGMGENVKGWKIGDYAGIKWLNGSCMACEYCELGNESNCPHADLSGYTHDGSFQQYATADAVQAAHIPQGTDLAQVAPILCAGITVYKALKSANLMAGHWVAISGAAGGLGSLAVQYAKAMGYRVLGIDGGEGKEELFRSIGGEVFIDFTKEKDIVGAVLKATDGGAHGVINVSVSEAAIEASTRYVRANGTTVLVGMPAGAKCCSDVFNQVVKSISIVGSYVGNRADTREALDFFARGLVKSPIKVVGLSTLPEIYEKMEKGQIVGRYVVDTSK
The data set can be described thus: SDS gel electrophoresis of alcohol dehydrogenase after storage with coenzyme. On the procedure:
Test conditions: MW, 10 220 kDa markers; 1: ADH, 65 hours at 6° C.; 2: ADH/cNAD, 65 hours at 6° C.; 3: ADH/NAD, 65 hours at 6° C.; 4: ADH, 65 hours at 35° C.; 5: ADH/cNAD, 65 hours at 35° C.; 6: ADH/NAD, 65 hours at 35° C.
Test conditions: MW, 10 220 kDa markers; 1: ADH/NAD, 0 days; 2: ADH/NAD, 1 day; 3: ADH/NAD, 2 days; 4: ADH/NAD, 3 days; 5: ADH/NAD, 5 days; 6: ADH/cNAD, 0 days; 7: ADH/cNAD, 1 day; 8: ADH/cNAD, 2 days; 9: ADH/cNAD, 3 days; 10: ADH/cNAD, 6 days.
cNAD or NAD were added to an alcohol detection solution. These mixtures were stored at 35° C. The stability of the enzyme was then checked at regular intervals, and the residual activity of the enzyme was determined.

Regarding `NC(=O)c1ccc[n+]([C@@H]2C[C@H](COP(=O)([O-])OP(=O)(O)OC[C@H]3O[C@@H](n4cnc5c(N)ncnc54)[C@H](O)[C@@H]3O)[C@@H](O)[C@H]2O)c1` [cNAD, carba-NAD], in data set [1], the “residual content of coenzyme in glucose detection reagent” value was “about 80 % of the initial level”. For the same compound, the “residual activity of GlucDH enzyme” value is 70% in data set [2] (after 5 weeks at 32° C. and 85% relative humidity, versus samples stored in refrigerator with desiccant); “about 25%” in data set [2] (after 24 weeks at 32° C. and 85% relative humidity). In addition, in data set [3], the “residual activity of GlucDH_E170K_K252L mutant” value is given as “about 50%”. The “residual activity of GlucDH_E96G_E170K mutant” value in data set [4] is recorded as “about 70%”. Moreover, the “residual activity of glucose dehydrogenase” value in data set [5] (after 95 hours at 50° C.) was 75%; in data set [5] (storage at 50° C. for 336 hours) it was “about 70%”. Further, the “function plot of GlucDH after storage” value in data set [6] (after 5 weeks at 32° C., 85% humidity) is “still in the bunch of previous measurements”; in data set [6] (over 24 weeks at 32° C., 85% humidity) it was “only slightly changed at high glucose concentrations”. Also, the “kinetics plots of GlucDH after storage” value in data set [6] (after 5 weeks at 32° C., 85% relative humidity) is “remain virtually unchanged”. Also, the “dry blank value (before application of blood sample)” value in data set [6] (up to 5 weeks at 32° C., 85% humidity) is listed as “this does not occur”. Moreover, the “alcohol dehydrogenase band in SDS gel” value is recorded as “distinctly less decomposition of the enzyme” in data set [7] (storage at 35° C., NAD 5 days, cNAD 6 days) and “differ only slightly” in data set [7] (storage for 65 hours at 35° C. (versus 6° C.)).
